Results from the supplement of paper PMC10307832.

Assays:
Assay in all cases: relative viability (nuclei count vs DMSO), 5 days (fraction); higher = more cells survive
AZ505 + Navitoclax = compound: C1CCC(CC1)N(CCNCCC2=C3C(=C(C=C2)O)NC(=O)CO3)C(=O)CCNCCC4=CC(=C(C=C4)Cl)Cl [AZ505] + CC1(C)CCC(c2ccc(Cl)cc2)=C(CN2CCN(c3ccc(C(=O)NS(=O)(=O)c4ccc(N[C@H](CCN5CCOCC5)CSc5ccccc5)c(S(=O)(=O)C(F)(F)F)c4)cc3)CC2)C1 [Navitoclax] (partner 0.5 µM)
Procedure, shortened: (§1)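 Relative viability was taken as the ratio of nuclei in treated wells to nuclei in vehicle wells. Lung cancer cell lines in 1536-well plates received compounds by pin tool one day after seeding, either one drug alone or a fixed anchor-drug dose plus five library-drug doses (not always all listed) in √10 steps. Nuclei were counted on 4× images after 5 days of treatment, and values are medians of duplicate plates.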

AZ505 + Linsitinib = compound: C1CCC(CC1)N(CCNCCC2=C3C(=C(C=C2)O)NC(=O)CO3)C(=O)CCNCCC4=CC(=C(C=C4)Cl)Cl [AZ505] + C[C@]1(O)C[C@@H](c2nc(-c3ccc4ccc(-c5ccccc5)nc4c3)c3c(N)nccn32)C1 [Linsitinib] (partner 1 µM)
Procedure, shortened: as §1

AZ505 + Trametinib = compound: C1CCC(CC1)N(CCNCCC2=C3C(=C(C=C2)O)NC(=O)CO3)C(=O)CCNCCC4=CC(=C(C=C4)Cl)Cl [AZ505] + CC(=O)Nc1cccc(-n2c(=O)n(C3CC3)c(=O)c3c(Nc4ccc(I)cc4F)n(C)c(=O)c(C)c32)c1 [Trametinib] (partner 0.02 µM)
Procedure, shortened: as §1

AZ505 + Palbociclib = compound: C1CCC(CC1)N(CCNCCC2=C3C(=C(C=C2)O)NC(=O)CO3)C(=O)CCNCCC4=CC(=C(C=C4)Cl)Cl [AZ505] + CC(=O)c1c(C)c2cnc(Nc3ccc(N4CCNCC4)cn3)nc2n(C2CCCC2)c1=O [Palbociclib] (partner 0.5 µM)
Procedure, shortened: as §1

Cell Line	relative viability (AZ505 + Navitoclax; first compound 0.08 µM)	relative viability (AZ505 + Navitoclax; first compound 0.253 µM)	relative viability (AZ505 + Navitoclax; first compound 0.8 µM)	relative viability (AZ505 + Navitoclax; first compound 2.53 µM)	relative viability (AZ505 + Navitoclax; first compound 8 µM)	relative viability (AZ505 + Linsitinib; first compound 0.08 µM)	relative viability (AZ505 + Linsitinib; first compound 0.253 µM)	relative viability (AZ505 + Linsitinib; first compound 0.8 µM)	relative viability (AZ505 + Linsitinib; first compound 2.53 µM)	relative viability (AZ505 + Linsitinib; first compound 8 µM)	relative viability (AZ505 + Trametinib; first compound 0.08 µM)	relative viability (AZ505 + Trametinib; first compound 0.8 µM)	relative viability (AZ505 + Trametinib; first compound 2.53 µM)	relative viability (AZ505 + Trametinib; first compound 8 µM)	relative viability (AZ505 + Palbociclib; first compound 0.08 µM)	relative viability (AZ505 + Palbociclib; first compound 0.253 µM)	relative viability (AZ505 + Palbociclib; first compound 0.8 µM)	relative viability (AZ505 + Palbociclib; first compound 2.53 µM)	relative viability (AZ505 + Palbociclib; first compound 8 µM)	relative viability (AZ505 + Trametinib; first compound 0.253 µM)
NCI-H596	0.862	0.806	0.597	0.803	0.87	0.953	0.932	0.933	1	0.908	0.721	0.593	0.648	0.674						
A-427	0.967	0.942	0.919	0.949	0.802	1.13	1.08	1.09	1.11	1.09	0.705	0.631	0.738	0.743	0.529	0.526	0.499	0.512	0.527	0.776
EMC-BAC-2	1.12	1.26	1.15	1.14	1.27	0.767	0.834	0.813	0.822	0.879	0.83	0.876	0.82	0.902	0.437	0.528	0.496	0.509	0.526	
NCI-H441	0.691	0.682	0.545	0.716	0.505	0.513	0.51	0.662	0.543	0.509	0.413	0.536	0.568	0.465	0.228	0.233	0.258	0.231	0.223	0.385
LCLC-103H						1.01	0.807	1.03	1.06	1.07	0.714	0.604	0.669	0.69	0.485	0.455	0.455	0.45	0.452	0.625
HCC-827	1.03	0.966	0.967	0.963	0.98	0.923	0.958	0.856	0.977	0.964	0.548	0.501	0.501	0.533	0.416	0.551	0.374	0.509	0.525	0.577
NCI-H1355	0.883	0.864	0.908	0.915	0.987	0.787	0.783	0.81	0.684	0.826	0.419	0.446	0.445	0.44	0.369	0.398	0.396	0.367	0.374	0.394
NCI-H1734	0.802	0.836	0.755	0.736	0.774	0.654	0.908	0.801	0.949	0.883	0.65	0.652	0.675	0.691	0.351	0.373	0.324	0.411	0.338	0.647
HARA	1.14	1.12	1.12	1.07	1.08	0.897	0.894	0.695	0.737	0.773	0.454	0.62	0.504	0.71	0.198	0.266	0.185	0.218	0.224	
HCC-15	0.657	0.734	0.697	0.721	0.669	0.877	0.909	0.842	0.837	0.919	0.278	0.341	0.366	0.372	0.78	0.714	0.686	0.847	0.739	0.391
LCLC-97TM1	0.446	0.521	0.902	0.735	0.694	0.257	0.2	0.16	0.201	0.199	0.208	0.166		0.191	0.213	0.252	0.219		0.232	0.156
RERF-LC-KJ	1.3	0.901	0.916	0.869	0.753	0.857	0.85	0.929	0.897	0.902	0.863	0.797	0.878	0.71	0.982	1.15	1.05	1	0.984	0.958
NCI-H1651	1.06	1.07	1.03	1.12	1.01	0.911	0.977	0.895	0.962	1.16	0.814	0.834	0.817	0.829	0.512	0.517	0.502	0.498	0.523	0.863
NCI-H2170	0.541	0.665	0.531	0.666	0.651						0.84	0.883	0.893	0.942	0.38	0.39	0.379	0.401	0.434	0.931
